Measured values: ChEMBL document CHEMBL5584307, “Discovery of a Potent and Orally Bioavailable Xanthine Oxidase/Urate Transporter 1 Dual Inhibitor as a Potential Treatment for Hyperuricemia and Gout” (J Med Chem, 2024)

What was measured:
[1] = Half life in overnight-fasted Sprague-Dawley rat at 5 mg/kg, po measured upto 24 hrs by LC-MS/MS analysis; format: ADME, organism-based; details: in vivo
[2] = Cmax in overnight-fasted Sprague-Dawley rat at 5 mg/kg, po measured upto 24 hrs by LC-MS/MS analysis; format: ADME, organism-based; details: in vivo
[3] = Clearance in overnight-fasted Sprague-Dawley rat at 1 mg/kg, iv measured upto 24 hrs by LC-MS/MS analysis; format: ADME, organism-based; details: in vivo
[4] = target: T1, Cytochrome P450 1A2 (Homo sapiens, UniProt P05177); test: Inhibition of CYP1A2 in human liver microsomes in presence of NADPH by LC-MS/MS analysis; format: ADME, Microsome
T1 sequence (P05177 whole entry): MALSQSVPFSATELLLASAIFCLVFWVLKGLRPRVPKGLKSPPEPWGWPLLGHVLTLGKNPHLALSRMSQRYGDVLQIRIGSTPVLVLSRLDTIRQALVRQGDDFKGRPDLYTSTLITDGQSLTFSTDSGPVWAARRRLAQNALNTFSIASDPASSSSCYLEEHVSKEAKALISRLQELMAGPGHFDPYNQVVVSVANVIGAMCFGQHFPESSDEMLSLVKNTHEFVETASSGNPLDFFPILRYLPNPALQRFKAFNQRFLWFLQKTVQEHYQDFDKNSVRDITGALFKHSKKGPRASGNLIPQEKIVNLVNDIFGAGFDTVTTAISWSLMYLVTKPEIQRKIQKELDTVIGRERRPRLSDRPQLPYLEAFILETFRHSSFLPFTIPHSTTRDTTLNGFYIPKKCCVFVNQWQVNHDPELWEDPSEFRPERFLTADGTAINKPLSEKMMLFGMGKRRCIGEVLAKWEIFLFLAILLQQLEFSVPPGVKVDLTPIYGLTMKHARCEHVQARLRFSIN

[5] = target: T2, Cytochrome P450 2C8 (Homo sapiens, UniProt P10632); test: Inhibition of CYP2C8 in human liver microsomes in presence of NADPH by LC-MS/MS analysis; format: ADME, Microsome
T2 sequence (P10632 whole entry): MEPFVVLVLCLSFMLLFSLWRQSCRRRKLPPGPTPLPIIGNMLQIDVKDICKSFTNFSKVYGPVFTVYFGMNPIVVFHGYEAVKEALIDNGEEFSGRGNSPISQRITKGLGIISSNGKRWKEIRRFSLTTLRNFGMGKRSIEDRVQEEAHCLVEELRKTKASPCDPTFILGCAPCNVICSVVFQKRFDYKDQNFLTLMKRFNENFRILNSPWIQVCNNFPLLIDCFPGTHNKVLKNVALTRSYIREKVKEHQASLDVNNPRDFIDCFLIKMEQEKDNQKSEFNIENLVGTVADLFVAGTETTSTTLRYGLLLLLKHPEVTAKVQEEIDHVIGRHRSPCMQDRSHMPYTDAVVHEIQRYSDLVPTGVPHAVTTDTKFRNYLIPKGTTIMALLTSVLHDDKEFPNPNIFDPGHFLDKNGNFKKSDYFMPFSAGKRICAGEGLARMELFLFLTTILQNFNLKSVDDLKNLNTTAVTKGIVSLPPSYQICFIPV

[6] = target: Cytochrome P450 2C9 (Homo sapiens, UniProt P11712); test: Inhibition of CYP2C9 in human liver microsomes in presence of NADPH by LC-MS/MS analysis; format: ADME, Microsome
Chain of Cytochrome P450 2C9 (P11712 whole entry): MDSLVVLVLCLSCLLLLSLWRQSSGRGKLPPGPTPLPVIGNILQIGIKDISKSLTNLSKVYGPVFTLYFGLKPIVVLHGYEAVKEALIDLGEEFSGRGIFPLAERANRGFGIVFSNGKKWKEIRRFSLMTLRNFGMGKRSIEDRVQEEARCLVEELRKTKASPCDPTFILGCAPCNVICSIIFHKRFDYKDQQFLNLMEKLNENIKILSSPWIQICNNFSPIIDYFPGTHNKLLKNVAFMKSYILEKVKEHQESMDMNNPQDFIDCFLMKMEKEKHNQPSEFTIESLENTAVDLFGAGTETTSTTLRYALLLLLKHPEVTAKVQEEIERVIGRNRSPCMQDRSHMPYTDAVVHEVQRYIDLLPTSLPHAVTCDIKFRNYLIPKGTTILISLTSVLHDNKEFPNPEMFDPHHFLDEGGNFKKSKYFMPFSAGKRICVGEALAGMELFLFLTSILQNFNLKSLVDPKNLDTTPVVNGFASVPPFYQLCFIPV

[7] = target: T3, Cytochrome P450 2B6 (Homo sapiens, UniProt P20813); test: Induction of CYP2B6 in human hepatocytes at 50 uM incubated for 48 hrs with media containing compound renewal every 24 hrs followed by substrate addition measured after 30 mins by LC-MS/MS analysis; format: ADME, cell-based, Hepatocyte; details: 48.5 h
T3 sequence (P20813 whole entry): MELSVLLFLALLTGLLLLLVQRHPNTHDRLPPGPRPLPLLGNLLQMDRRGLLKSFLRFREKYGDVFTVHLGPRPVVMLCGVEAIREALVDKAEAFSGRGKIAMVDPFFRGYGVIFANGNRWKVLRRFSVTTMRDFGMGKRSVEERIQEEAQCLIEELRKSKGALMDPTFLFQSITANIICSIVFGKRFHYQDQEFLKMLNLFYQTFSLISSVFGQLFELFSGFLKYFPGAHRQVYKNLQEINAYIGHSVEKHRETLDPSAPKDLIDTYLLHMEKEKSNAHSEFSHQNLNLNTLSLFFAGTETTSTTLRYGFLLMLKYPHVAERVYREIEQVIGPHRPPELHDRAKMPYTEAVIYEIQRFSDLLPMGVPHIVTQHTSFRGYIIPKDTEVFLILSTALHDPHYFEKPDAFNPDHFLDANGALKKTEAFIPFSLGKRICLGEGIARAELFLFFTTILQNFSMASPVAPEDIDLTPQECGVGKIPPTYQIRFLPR

[8] = target: Cytochrome P450 3A4 (Homo sapiens, UniProt P08684); test: Induction of CYP3A4 in human hepatocytes at 50 uM incubated for 48 hrs with media containing compound renewal every 24 hrs followed by substrate addition measured after 30 mins by LC-MS/MS analysis; format: ADME, cell-based, Hepatocyte; details: 48.5 h
Chain of Cytochrome P450 3A4 (P08684 whole entry): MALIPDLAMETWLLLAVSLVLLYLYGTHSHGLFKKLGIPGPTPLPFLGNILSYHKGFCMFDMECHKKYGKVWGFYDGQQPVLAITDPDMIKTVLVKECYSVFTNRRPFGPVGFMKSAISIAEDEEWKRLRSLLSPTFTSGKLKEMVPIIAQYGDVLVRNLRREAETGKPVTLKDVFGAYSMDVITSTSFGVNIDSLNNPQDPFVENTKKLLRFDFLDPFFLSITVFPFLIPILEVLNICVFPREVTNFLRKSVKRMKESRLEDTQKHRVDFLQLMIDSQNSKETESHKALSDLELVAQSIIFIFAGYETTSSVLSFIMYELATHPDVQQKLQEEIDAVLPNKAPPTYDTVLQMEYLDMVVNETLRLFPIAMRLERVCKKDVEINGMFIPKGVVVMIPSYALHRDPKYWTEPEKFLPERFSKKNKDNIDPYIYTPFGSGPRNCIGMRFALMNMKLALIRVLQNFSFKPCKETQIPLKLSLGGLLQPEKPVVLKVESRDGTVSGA

[9] = Ratio of drug concentration in Sprague-Dawley rat liver to plasma at 3 mg/kg, po measured for 24 hrs by LC-MS/MS analysis; format: ADME, organism-based; details: liver and plasma
[10] = target: Voltage-gated inwardly rectifying potassium channel KCNH2 (Homo sapiens, UniProt Q12809); test: Inhibition of hERG by electrophysiology; format: toxicity
Chain of Voltage-gated inwardly rectifying potassium channel KCNH2 (Q12809 whole entry): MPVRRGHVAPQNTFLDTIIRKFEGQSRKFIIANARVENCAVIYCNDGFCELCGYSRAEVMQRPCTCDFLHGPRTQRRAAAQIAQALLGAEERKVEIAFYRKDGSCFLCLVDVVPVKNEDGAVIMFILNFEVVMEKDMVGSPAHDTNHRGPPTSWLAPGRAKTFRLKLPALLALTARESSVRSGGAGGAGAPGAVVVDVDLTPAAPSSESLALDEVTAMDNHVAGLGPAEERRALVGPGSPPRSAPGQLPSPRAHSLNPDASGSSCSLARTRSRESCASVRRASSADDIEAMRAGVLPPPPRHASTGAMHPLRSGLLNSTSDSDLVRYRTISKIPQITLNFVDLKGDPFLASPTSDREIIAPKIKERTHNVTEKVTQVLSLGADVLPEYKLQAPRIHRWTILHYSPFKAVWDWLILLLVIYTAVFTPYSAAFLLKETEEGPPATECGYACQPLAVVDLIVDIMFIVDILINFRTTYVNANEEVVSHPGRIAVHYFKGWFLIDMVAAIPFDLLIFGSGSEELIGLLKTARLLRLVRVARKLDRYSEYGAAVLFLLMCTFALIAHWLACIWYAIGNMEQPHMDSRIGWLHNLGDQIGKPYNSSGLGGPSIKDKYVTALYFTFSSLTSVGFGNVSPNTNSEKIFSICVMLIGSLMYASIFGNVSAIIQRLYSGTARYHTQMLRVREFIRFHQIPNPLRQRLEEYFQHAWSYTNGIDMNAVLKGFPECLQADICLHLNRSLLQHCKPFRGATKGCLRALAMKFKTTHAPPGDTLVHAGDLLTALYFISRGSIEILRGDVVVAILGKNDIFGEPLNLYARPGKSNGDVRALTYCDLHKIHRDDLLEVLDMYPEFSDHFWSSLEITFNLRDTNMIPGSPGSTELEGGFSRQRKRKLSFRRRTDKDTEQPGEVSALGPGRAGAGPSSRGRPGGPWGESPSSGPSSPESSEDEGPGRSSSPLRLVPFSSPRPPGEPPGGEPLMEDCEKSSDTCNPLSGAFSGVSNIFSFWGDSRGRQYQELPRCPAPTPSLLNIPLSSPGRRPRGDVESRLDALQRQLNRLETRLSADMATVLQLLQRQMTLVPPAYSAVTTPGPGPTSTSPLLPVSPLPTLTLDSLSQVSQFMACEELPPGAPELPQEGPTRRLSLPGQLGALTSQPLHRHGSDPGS

[11] = Oral bioavailability in Cynomolgous monkey at 5 mg/kg measured upto 24 hrs by LC-MS/MS analysis; format: ADME, organism-based, Macaca fascicularis; details: cynomolgus monkey, in vivo
[12] = system: Sapajus apella; test: Urate lowering effect in Tufted capuchin monkey assessed as urine xanthine level at 30 mg/kg/day, po qd for 3 days consecutively; format: functional; details: time 3 day
[13] = Tmax in Tufted capuchin monkey at 30 mg/kg, po measured for 24 hrs by LC-MS/MS analysis; format: ADME, organism-based; details: sapajus apella, in vivo
[14] = AUC (last) in Tufted capuchin monkey at 30 mg/kg, po measured for 24 hrs by LC-MS/MS analysis; format: ADME, organism-based; details: sapajus apella, in vivo
[15] = Toxicity in cynomolgous monkey assessed as development-limiting effect; parameters: species or system Macaca fascicularis; details: cynomolgus monkey, in vivo
[16] = Genotoxicity in Salmonella typhimurium TA100 by Ames test; format: toxicity; details: salmonella enterica subsp. enterica serovar typhimurium
[17] = Genotoxicity in Salmonella typhimurium TA102 by Ames test; format: toxicity; details: salmonella enterica subsp. enterica serovar typhimurium
[18] = Genotoxicity in Salmonella typhimurium TA1535 by Ames test; format: toxicity; details: salmonella enterica subsp. enterica serovar typhimurium
[19] = Toxicity in rat assessed as increase in salivation at 120 mg/kg/day for 28 days; format: organism-based; details: in vivo, 672 h, time 28 day
[20] = Toxicity in cynomolgous monkey assessed as increase in fluid feces at 90 to 200 mg/kg/day for 28 days consecutively; format: organism-based, Macaca fascicularis; details: cynomolgus monkey, in vivo, 672 h; dose 90-200 mg/kg/day, time 28 day
[21] = Toxicity in cynomolgous monkey assessed as decrease in food consumption at 90 to 200 mg/kg/day for 28 days consecutively; format: organism-based, Macaca fascicularis; details: cynomolgus monkey, in vivo, 672 h; dose 90-200 mg/kg/day, time 28 day
[22] = AUC (0 to t) in female cynomolgous monkey at 30 mg/kg/day for 28 days; format: ADME, organism-based, Macaca fascicularis; details: cynomolgus monkey, in vivo, time 28 day
[23] = system: Sapajus apella; details: dose 30.0 mg/kg/day, route po, time 3.0 day

With `N#Cc1cc(-c2ccc(C(=O)O)c(O)c2)c2oc(F)cc2c1` as the molecule, how does the half-life [1] read?
The half-life was 2.84 h.

And the Cmax [2]?
The Cmax was 17200 ng/mL.

What about the clearance [3] of the same molecule?
The clearance was 1.51 mL/min/kg.

And the IC50 [4]?
Its IC50 is > 50 µM.

And the IC50 [5]?
Its IC50 is 12.2 µM.

What about the IC50 [6] of the same molecule?
Its IC50 is 2.78 µM.

What about the Activity [7] of the same molecule?
Its Activity is < 20%.

What about the Activity [8] of the same molecule?
Its Activity is < 20%.

What about the Kp at 24 h [9] of the same molecule?
The Kp at 24 h was 1.17.

What about the IC50 [10] of the same molecule?
The IC50 was > 52 µM.

What about the bioavailability [11] of the same molecule?
The bioavailability was 42.4%.

What about the Activity [12] of the same molecule?
Its Activity is 29.26 µg·h/mL.

And the Tmax [13]?
Its Tmax is 0.8 h.

What about the AUC(0-t) at 24 h [14] of the same molecule?
Its AUC(0-t) at 24 h is 31.6 µg·h/mL.

And the Activity [15]?
The Activity was “Non-Toxic”.

What about the Activity [16] of the same molecule?
The Activity was “Non-Toxic”.

What about the Activity [17] of the same molecule?
Its Activity is “Non-Toxic”.

What about the Activity [18] of the same molecule?
The Activity was “Non-Toxic”.

What about the Activity [19] of the same molecule?
Its Activity is “Toxic”.

And the Activity [20]?
The Activity was “Toxic”.

And the Activity [21]?
The Activity was “Toxic”.

What about the AUC(0-t) at 672 h [22] of the same molecule?
Its AUC(0-t) at 672 h is 336 µg·h/mL.

And the AUC [23]?
Its AUC is 504000 ng·h/mL.
